Data: the NIST ThermoML archive (doi:10.1016/j.fluid.2014.05.023)
Where “and” joins values, the source holds several entries; their conditions need not be identical. Equal entries are not always repeated. Numbers after ± are expanded uncertainties.

Test: activity coefficient (dimensionless); of the first substance listed, at infinite dilution; xn = mol fraction of the nth substance listed
Conditions: 101 kPa, Liquid, Chromatography, x1 = 0

Compound | activity coefficient (273.35 K) | activity coefficient (283.15 K) | activity coefficient (293.15 K) | activity coefficient (298.15 K) | activity coefficient (303.15 K) | activity coefficient (313.15 K) | activity coefficient (323.15 K) | activity coefficient (333.15 K) | activity coefficient (341.15 K) | activity coefficient (351.15 K) | activity coefficient (361.25 K)
CCCCOC(C)=O [butyl ethanoate] + O | 613 ± 42 | 799 ± 55 | 942 ± 65 | 1040 ± 72 | 1080 ± 75 | 1140 ± 79 | 1160 ± 80 | 1140 ± 78 | – | – | –
CCOC(C)=O [ethyl acetate] + O | 44.5 ± 3 | 54.9 ± 3.8 | 64.8 and 68 | 69.2 ± 4.7 | 73.6 ± 5 | 80.1 ± 5.5 | – | – | – | – | –
CCCC(=O)OCC [ethyl butanoate] + O | – | – | 993 ± 68 | – | 1090 ± 75 | 1150 ± 79 | 1180 ± 81 | 1180 ± 81 | 1110 ± 120 | 1030 ± 110 | –
CCOC(=O)CC [ethyl propanoate] + O | – | – | 252 ± 17 | – | 291 ± 20 | 312 ± 21 | 329 ± 23 | 343 ± 24 | 332 and 328 | 366 and 321 | 283 ± 57
CCCOC(C)=O [propyl ethanoate] + O | 172 ± 12 | 217 ± 15 | 274 and 257 | 261 and 270 | 281 ± 19 | 302 ± 21 | 319 ± 22 | 321 ± 22 | – | – | –
